The subject of series [1] is VRSA 1 (vancomycin-resistant S. aureus). The arrangement: method as in PMID 32195571. Conditions: previously reported; cited from earlier work.
The subject of another series is MDCK cells. The series is classed as cell-based. The settings on record: 24 h, Alamar blue. The protocol:
acid group of vancomycin to yield the compounds 1-10. All the derivatives of vancomycin were purified by reverse phase HPLC to about 90 % purity with 65-75 % yield and characterized by HR-MS and 1H-NMR.
Figure S1. Cytotoxicity of VanQAmC10 against MDCK cells. The CC50 (defined as the concentration at which the viability of compound treated cells reduced to 50%) was greater […]
(1 picture or pasted object on this page, not shown here)
50 μL of serially diluted compound was added into 96 well microtiter plates. Freshly drawn, heparanized human blood was centrifuged down to obtain the erythrocytes and re-suspended to 5 vol % in PBS (pH 7.4). […] 100 μL of the supernatant from each well were transferred into fresh microtiter plates, and A540 was measured.
% haemolysis = (A - A0)/(Atotal -A0) × 100, where A is the absorbance of the test well, A 0 the absorbance of the negative controls (without compound), and A total the absorbance of 100 % hemolysis wells (with Triton X -100), all at 540 nm. […]
2 h post incubation with dye, the absorbance was measured at 570 nm using 600 nm as […]
The bactericidal activity of the compounds was evaluated with the time kill kinetics assay.
MRSA ATCC 33591 cells were cultured in nutrient media at 37°C for 6 h. […] The bacterial colonies were counted and results are represented in logarithmic scale, i.e. log10 (CFU/mL). […]
(In general: Resazurin is reduced to fluorescent resorufin, in cell work by metabolically active cells.)

The subject of series [2] is VRE 51575 (vancomycin-resistant E. faecalis, VanB phenotype, ATCC 51575). Also on record: method as in PMID 32195571. Conditions: previously reported; cited from earlier work.
For a further series, the system named is VRE ATCC 51575. Nature of the series: Activity in blood plasma and liver homogenate. The series is classed as cell-based, E. faecalis. The settings on record: for MIC: Enterococcus, VRE ATCC 51575. The procedure:
Table S1: Activity of VanQAmC10 in mouse plasma and liver homogenate against MRSA […]
MIC of VanQAmC10 post incubation in (μM) […]
Activity in blood plasma and liver homogenate
To examine the susceptibility of VanQAmC10 to serum proteases, the antibacterial activities was tested in the presence of 50% of plasma and liver homogenate. Briefly, 250 μL of VanQAmC10 was added into 250 μL of fresh […] plasma and incubated at 37 °C. An aliquot of the samples 3 h and 24h post-incubation was diluted in 0.9% saline and the antibacterial activity (MIC) were determined against MRSA and VRE by following the same protocol as described above for the antibacterial assay. […]
50 μL of ∼10^6 CFU/mL bacterial inoculum (MRSA ATCC33591) was injected into the thigh. 1 h post-inoculation, animals were treated intraperitoneally twice with 12 h intervals with saline, vancomycin (12 mg kg−1), and VanQAmC10 (12 mg kg−1). 24 h post the first treatment, the animals were euthanized (using ether) and the thighs were collected aseptically. The thigh tissue was weighed and homogenized. The dilutions of the homogenate were plated onto agar plates, which were incubated overnight at about 37 °C. […]
In-vivo activity in murine burn wound infectionmodel 10-12

Read-outs that look alike come from different tables or passages of the source. Some results are limits rather than exact numbers.

A word on the CC50: it is the concentration giving 50% cytotoxicity. A lower CC50 goes with greater toxicity to the cells. One may read the MIC as the least concentration at which growth counts as inhibited. For `CCCCCCCCCCNC(=O)C[N+](C)(C)CCCNC(=O)C1NC(=O)C2NC(=O)C(NC(=O)C3NC(=O)C(CC(N)=O)NC(=O)C(NC(=O)C(CC(C)C)NC)C(O)c4ccc(c(Cl)c4)Oc4cc3cc(c4OC3OC(CO)C(O)C(O)C3OC3CC(C)(N)C(O)C(C)O3)Oc3ccc(cc3Cl)C2O)c2ccc(O)c(c2)-c2c(O)cc(O)cc21` (stereo not shown) [VanQAmC10 (8)], in series [1], the “Minimum inhibitory concentration, VRSA 1” value was 3.1 µM. The CC50 in the series with MDCK cells is > 64 µM. Besides, the “Minimum inhibitory concentration, VRE 51575” value in series [2] was 4 µM. The MIC turned out to be 4 µM in the series with VRE ATCC 51575 (50% plasma, 37 °C, read-out: MIC post incubation in plasma); 4 µM with VRE ATCC 51575 (read-out: MIC post incubation in liver homogenate); 4 µM in the series with VRE ATCC 51575 (read-out: MIC post incubation in media). Also, in the series with VRE ATCC 51575 (VRE), the “change of MIC in plasma and liver homogenate” value is “remained unchanged”.

The values are drawn from PMC9977398, “Next-generation membrane-active glycopeptide antibiotics that also inhibit bacterial cell division” (Chemical Science, 2023).
